From US7727980B2, “Tricyclic androgen receptor modulator compounds and methods” (priority 2001, dated 2010)
Like-named read-outs stand apart in the source and are kept apart here.

Columns and labels:
human AR [1] = biological target: T1, human AR (Homo sapiens, UniProt P10275); experiment: Co-transfection assay, AR antagonist activity in presence of DHT, CV-1 cells; format: cell-based; design: expressed in transfected cells; host or cells: CV-1 cells (African green monkey kidney fibroblasts), transient transfection with pRShAR; conditions: for AR Antagonist CV-1 Cells Efficacy (%): percent maximal inhibition, DHT at its EC50 concentration
T1 sequence (P10275 1-920): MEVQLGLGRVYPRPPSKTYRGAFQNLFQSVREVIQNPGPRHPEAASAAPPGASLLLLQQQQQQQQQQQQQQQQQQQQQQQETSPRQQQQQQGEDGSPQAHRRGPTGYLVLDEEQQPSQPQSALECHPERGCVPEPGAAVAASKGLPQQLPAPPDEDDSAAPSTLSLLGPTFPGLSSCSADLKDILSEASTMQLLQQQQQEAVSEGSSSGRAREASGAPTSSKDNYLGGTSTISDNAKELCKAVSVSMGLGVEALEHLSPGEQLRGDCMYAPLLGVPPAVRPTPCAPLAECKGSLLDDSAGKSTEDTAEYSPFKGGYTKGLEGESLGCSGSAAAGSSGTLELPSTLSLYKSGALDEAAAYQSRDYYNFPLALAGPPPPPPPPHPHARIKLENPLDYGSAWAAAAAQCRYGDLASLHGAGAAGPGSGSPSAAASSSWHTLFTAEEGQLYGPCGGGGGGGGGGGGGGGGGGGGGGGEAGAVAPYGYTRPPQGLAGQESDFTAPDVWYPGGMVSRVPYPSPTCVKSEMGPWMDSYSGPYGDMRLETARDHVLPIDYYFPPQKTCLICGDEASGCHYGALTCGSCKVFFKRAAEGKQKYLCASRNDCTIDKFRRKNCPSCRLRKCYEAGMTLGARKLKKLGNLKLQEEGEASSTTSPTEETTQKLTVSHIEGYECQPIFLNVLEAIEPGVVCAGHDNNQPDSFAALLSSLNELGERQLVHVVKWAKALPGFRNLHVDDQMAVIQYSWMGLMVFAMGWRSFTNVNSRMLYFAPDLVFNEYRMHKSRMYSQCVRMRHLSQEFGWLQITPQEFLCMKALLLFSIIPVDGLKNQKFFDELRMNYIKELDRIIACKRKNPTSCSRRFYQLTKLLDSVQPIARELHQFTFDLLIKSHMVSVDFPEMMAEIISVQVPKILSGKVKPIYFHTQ

human AR [2] = biological target: T1, human AR; experiment: AR whole cell competitive binding assay (3H-DHT), transfected COS-1 cells; design: expressed in transfected cells; transient transfection with pRShAR
human AR [3] = biological target: T1, human AR; experiment: Co-transfection assay, AR agonist activity, CV-1 cells; format: cell-based; design: expressed in transfected cells; host or cells: CV-1 cells (African green monkey kidney fibroblasts), transient transfection with pRShAR; conditions: for AR Agonist CV-1 Cells Efficacy (%): percent maximal response relative to reference agonist DHT
[4] = AR Agonist CV-1 Cells Potency (nM), agonist potency or EC50
[5] = AR Antagonist CV-1 Cells Potency (nM), CV-1 cells, antagonist potency or IC50, DHT at its EC50 concentration
[6] = AR Binding Ki (nM), COS-1 cells, 1 nM 3H-DHT, Cheng-Prusoff from IC50

Compound	IC50 (human AR [1]) [nM]	AR Antagonist CV-1 Cells Efficacy (%) (human AR [1]; CV-1 cells)	Ki (human AR [2]; read-out: AR Binding Ki) [nM]	EC50 (human AR [3]; [4]) [nM]	AR Agonist CV-1 Cells Efficacy (%) (human AR [3])	IC50 (human AR [1]; [5]) [nM]	Ki (human AR [2]; [6]) [nM]	IC50 (human AR [1]; CV-1 cells, antagonist potency or IC50, DHT at its EC50 concentration, read-out: AR Antagonist CV-1 Cells Potency) [nM]	Ki (human AR [2]; COS-1 cells, 1 nM 3H-DHT, Cheng-Prusoff from IC50, read-out: AR Binding Ki) [nM]	EC50 (human AR [3]; agonist potency or EC50, read-out: AR Agonist CV-1 Cells Potency) [nM]
CCC1C(C)c2c(ccc3[nH]c(=O)ccc23)N1CC(F)(F)F (racemic) [Compound 149, (±)-5,6-cis-Dihydro-5-methyl-6-ethyl-7-(2,2,2-trifluoroethyl)-7H-pyrrolo[3,2-f]quinolin-2(1H)-one]	25	81%	127	> 10000	na (na = not active (i.e. efficacy of <20 and potency of >10,000))	–	–	–	–	–
Cc1[nH]c2c(ccc3[nH]c(=O)cc(C(F)(F)F)c32)c1CCO [Compound 177, 7-(2-Hydroxyethyl)-6-methyl-4-trifluoromethyl-5H-pyrrolo[2,3-f]quinolin-2(1H)-one]	–	98%	–	> 10000	na (na = not active (i.e. efficacy of <20 and potency of >10,000))	790	31	–	–	–
6-Ethyl-5-methyl-7-(2,2,2-trifluoroethyl)-7H-pyrrolo[3,2-f]quinolin-2(1H)-one [Compound 151]	–	57%	–	–	36%	–	–	5.9	48	120
O=c1cc(C(F)(F)F)c2c3c(ccc2[nH]1)N(CC(F)(F)Cl)C1CCCC31 (racemic) [Compound 129, (±)-4c,5,6,7,7a(cis),8-Hexahydro-8-(2,2,2-chlorodifluoroethyl)-4-trifluoromethylcyclopentano[g]pyrrolo[3,2-f]quinolin-2(1H)-one]	–	na (na = not active (i.e. efficacy of <20 and potency of >10,000))	–	1.6	79%	> 10000	3.2	–	–	–
O=c1cc(C(F)(F)F)c2c(ccc3c2c2ccccc2n3CC(F)(F)F)[nH]1 [Compound 158, 9-(2,2,2-Trifluoroethyl)-4-trifluoromethyl-9H-benzo[g]pyrrolo[3,2f]quinolin-2(1H)-one]	–	na (na = not active (i.e. efficacy of <20 and potency of >10,000))	–	7.9	59%	> 10000	7.1	–	–	–
CC1=CC(C)(C)Oc2cc3oc(=O)cc(C(F)(F)F)c3cc21 [Compound 223, 6,8,8-Trimethyl-4-trifluoromethyl-8H-pyrano[3,2-g]coumarin]	–	66%	–	> 10000	na (na = not active (i.e. efficacy of <20 and potency of >10,000))	41	37	–	–	–
